US11958811B1, “1-[4,5-bis(4-bromophenyl)-1-hexyl-1H-imidazol-2-yl]-2-naphthol as an antimicrobial compound” (KING FAISAL UNIVERSITY, priority 2023, dated 2024)

Columns and labels:
Format in all cases: cell-based
Conditions in all cases: after 10, 20, 40 and 60 minutes at all dilutions 1:100, 1:200, 1:400, 1:800
[1] = test system: Candida albicans; assay: Antimicrobial screening by agar dilution, Candida albicans
Description: (§1) The antimicrobial properties of the 1-[4,5-bis(4-bromophenyl)-1-hexyl-1H-imidazol-2-yl]-2-naphthol was studied by the method of agar dilution. Test solutions of each compound was prepared in concentration of 1% using dimethylformamide as a solvent then they were diluted in physiological solution to obtain the final experimental dilutions 1:100, 1:200, 1:400, 1:800. The effect of these substances was compared with furacillin in a controlled study. The testing microbes used were gram positive bacteria Staphylococcus aureus, gram negative bacteria Pseudomonas aeruginosa and Escherichia coli and Candida albicans fungi were taken. The experiments used for this survey were meat-pentonlu agar (EPA) for cultivation of bacteria and Saburo environment for fungi. Each experiment used 1 ml of test solution on each plate 500 min. Add 2 drops of emulsified with microbes feel. All experimental samples were taken from the agar after 10, 20, 40, 60 minutes in the environment on the basis of Patrk planted. Bacteria were cultivated at a temperature of 37° C. for 1 day and the mushroom was kept in a thermostat for […] at a temperature of 28° C. Then results were checked.

[2] = test system: Escherichia coli; assay: Antimicrobial screening by agar dilution, E. Coli
Description: as §1

[3] = test system: Staphylococcus aureus; assay: Antimicrobial screening by agar dilution, St. Aereus
Description: as §1

[4] = test system: Pseudomonas aeruginosa; assay: Antimicrobial screening by agar dilution, Ps. Aeroqonaza
Description: as §1

Measured: inhibition activity

CCCCCCn1c(-c2c(O)ccc3ccccc23)nc(-c2ccc(Br)cc2)c1-c1ccc(Br)cc1 [1-[4,5-bis(4-bromophenyl)-1-hexyl-1H-imidazol-2-yl]-2-naphthol]
highest inhibition activity: [1] | [2] | [3] | [4]
